Converted amounts (≈) assume the structure as drawn.
Legend:
SF-295 = assay: 8-day growth inhibition; format: cell-based; conditions: GBM, SF-295, 8-day assay
HCC1806 = assay: 8-day growth inhibition; format: cell-based; conditions: Breast, HCC1806, 8-day assay
Hs578T = assay: 8-day growth inhibition; format: cell-based; conditions: Breast, 8-day assay
HT-1080 = assay: 8-day growth inhibition; format: cell-based; conditions: Fibrosarcoma, HT-1080, 8-day assay
NCI-H211 = assay: 8-day growth inhibition; format: cell-based; conditions: SCLC, NCI-H211, 8-day assay
BT-20 = assay: 8-day growth inhibition; format: cell-based; conditions: Breast, BT-20, 8-day assay
sIL-2Rα/CD25 = assay: Serum biomarker analysis, sIL-2Rα; format: in vivo, human; conditions: from 48 h onwards, all dose groups
Protocol: Two pre-dose, multiple post-dose and off-treatment time points were included. Serum samples were tested for concentrations of soluble vascular endothelial growth factor receptor (VEGFR)2, VEGFR3 and soluble interleukin-2 receptor α (sIL-2Rα/CD25), using the bead-based Human Soluble Cytokine Receptor Panel assay kit. The two baseline samples (days −3 and −2 prior to dosing) were averaged, and the mean was used to calculate percent change at each of the post-dosing time points.

HEC-59 = assay: 8-day growth inhibition; format: cell-based; conditions: Endometrial, HEC-59, 8-day assay
HEC-251 = assay: 8-day growth inhibition; format: cell-based; conditions: Endometrial, HEC-251, 8-day assay
U937 = assay: 8-day growth inhibition; format: cell-based; conditions: Histiocytic lymphoma - monocytic, U937, 8-day assay
KLE = assay: 8-day growth inhibition; format: cell-based; conditions: Endometrial, 8-day assay
K562 = assay: 8-day growth inhibition; format: cell-based; conditions: Erythroleukemia from CML patient, K562, 8-day assay
HCT-116 = assay: 8-day growth inhibition; format: cell-based; conditions: Colon, HCT-116, 8-day assay
RL95-2 = assay: 8-day growth inhibition; format: cell-based; conditions: Endometrial, RL95-2, 8-day assay
DB = assay: 8-day growth inhibition; format: cell-based; conditions: DLBCL (GC), 8-day assay
KG-1 = assay: 8-day growth inhibition; format: cell-based; conditions: AML, KG-1, 8-day assay
PARP1 = conditions: read-out: IC50, enzymatic activity of PARP1; cited from earlier work
AN3 CA = assay: 8-day growth inhibition; format: cell-based; conditions: Endometrial, 8-day assay
MV-4-11 = assay: 8-day growth inhibition; format: cell-based; conditions: AML, MV-4-11, 8-day assay
SNU-423 = assay: 8-day growth inhibition; format: cell-based; conditions: HCC, SNU-423, 8-day assay
RL = assay: 8-day growth inhibition; format: cell-based; conditions: NHL B cell lymphoma, 8-day assay
HCC1143 = assay: 8-day growth inhibition; format: cell-based; conditions: Breast, HCC1143, 8-day assay
MCF-7 = assay: 8-day growth inhibition; format: cell-based; conditions: Breast, MCF-7, 8-day assay
PARP = assay: Sigmoidal inhibitory indirect-response PK/PD model of PAR formation; format: in vivo, human; conditions: model estimate
Protocol: The PD measurement utilised in the PK/PD model was the percentage inhibition of the formation of PAR, a marker for PARP activity,[19] which was calculated as % inhibition = […], where baseline was defined as the PAR response at time 0 on day –2.
The model parameters from the PK/PD analysis were then used to simulate the expected PAR responses of additional dosing regimens of E7449. All PK/PD modelling and subsequent response simulations were performed using Phoenix WinNonlin®, version 7.

[1] = tested on: human colon cancer SW480 cells; conditions: cited from earlier work

## O=c1[nH]nc2c3c(cccc13)N=C(CN1Cc3ccccc3C1)N2 [E7449]
SF-295
  IC50: 2600 nM
HCC1806
  IC50: 1800 nM
Hs578T
  IC50: 9.6 µM
HT-1080
  IC50: 830 nM
NCI-H211
  IC50: 480 nM
BT-20
  IC50: 7.9 µM
sIL-2Rα/CD25
  sIL-2Rα change above baseline: up to 150%
HEC-59
  IC50: 2440 nM
HEC-251
  IC50: 1260 nM
U937
  IC50: 2700 nM
KLE
  IC50: 2590 nM
K562
  IC50: 4.3 µM
HCT-116
  IC50: 1700 nM
RL95-2
  IC50: 2130 nM
DB
  IC50: 1600 nM
KG-1
  IC50: 2000 nM
PARP1
  IC50: 1 nM
AN3 CA
  IC50: 1490 nM
MV-4-11
  IC50: 950 nM
SNU-423
  IC50: 19 µM
RL
  IC50: 2500 nM
HCC1143
  IC50: 3.7 µM
MCF-7
  IC50: 1900 nM
PARP
  kout: 0.52 h⁻¹
PARP; plasma concentration, inhibition of PAR formation in PBMCs
  EC50: 0.11 µg/mL (≈ 0.347 µM)
PARP; rate of formation of PAR
  kin: 35.5 h⁻¹
[1]
  Active and total β-catenin: concomitant reduction
  Axin2 levels: significant increase
